Test results taken from patent US20040006103A1, “Use of chloroquine, hydroxychloroquine and 4 amino-quinolinic derivatives to obtain a drug for the anti retroviral therapy, active towards HIV sensitive strains and towards HIV strains which are resistant to both nucleosidic and non-nucleosidic reverse transcriptase inhibitors and to proteases …” (VALPHARMA S.A., priority 2002, published 2004).
Where two headings read alike, the source gives them in different places.

Key:
[1] = test system: viruses resistant to both reverse transcriptase and protease inhibitors; assay: p24 production susceptibility test, summary for resistant viruses; format: cell-based, HIV-1; conditions: Human immunodeficiency virus 1, range
Procedure: (§1) In order to assay in vitro the susceptibility to chloroquine and hydroxychloroquine of the viral strains, it was used the protocol of the ACTG which is characterised by the measure, of the production of antigen p24 in strongly infected cells.
(§2) The susceptibility of the viral strains to chemotherapics was determined in cell cultures, prepared in 96 wells microplates, using, for the infection, 0.1 MOI.
The supernatant of the infected cultures (either in absence or in presence of different concentrations of chemotherapic) were tested for the production of p24 after 7 days, using an ELISA test which is commercially available. […]
(§3) After 4 day from the infection, half the cellular medium was replaced with a medium containing the corresponding dilution of chloroquine and hydroxychloroquine. The percentage of inhibition of the HIV replication, induced by chloroquine and hydroxychloroquine, was determined, after 7 day from the infection, comparing the levels of p24 of this cultures and that of the control, infected and not treated with chloroquine and hydroxychloroquine.
(§4) Therefore, the E.C.50 of chloroquine and hydroxychloroquine expresses the concentration of chemotherapic that inhibits the 50% of production of p24 and the values were calculated using linear and non linear regression analysis (the significativity for the non linear regression was R^2>0.95).

[2] = test system: HIV-1 strains geno-phenotypically resistant to EFV; assay: p24 production susceptibility test, Table 7, MT-2 cells; format: cell-based; conditions: for EC50: Human immunodeficiency virus 1, MT2, MT-2, read-out: E.C.50 HCQ; for S.I. HCQ / Fen. HCQ (fold): MT-2; for S.I. HCQ: I.C.50/E.C.50; for Fen. HCQ (fold): ratio to HIV-IIIB
Description: (§5) For the phenotype of the nucleosidic, non-nucleosidic and proteases inhibitors was utilised a method which consider the use of human PBMC and the protocol standardised by the AIDS Clinical Trials Group, after verifying the genotype by sequence analysis.
as §1, §2
(§6) The supernatant of the infected cultures (either in absence or in presence of different concentrations of chemotherapic) were tested for the production of p24 after 7 days, using an ELISA test which is commercially available.
(§7) The concentrations of chloroquine and hydroxychloroquine tested ranged from 0.5 to 15 uM. At the same time non-infected cells were incubated with concentrations of chloroquine and hydroxychloroquine ranging from 0 to 50 uM to evaluate the toxicity of the compound.
as §3, §4
(§8) In the same experimental conditions and in the same day, but with similar concentrations of chloroquine and hydroxychloroquine, it was evaluated the vitality of the infect cell cultures, and this was expressed as I.C.50.
(§9) I.C.50 (Inhibitory Concentration) indicates the concentration of the chemotherapic agent inhibiting the vitality of the cell cultures at a rate of 50%, when there is not infection.

[3] = test system: HIV-1 clinical isolated, characterised by mutations in the RT gene inducing geno-phenotypic resistance to d4T; assay: p24 production susceptibility test (ACTG protocol), Table 4; format: cell-based; conditions: for EC50: Human immunodeficiency virus 1, PBMC, read-out: E.C.50 HCQ; for S.I. HCQ / Fen. HCQ (fold): PBMC; for S.I. HCQ: I.C.50/E.C.50; for Fen. HCQ (fold): ratio to HIV-IIIB
Description: as §5, §1, §2, §6, §7, §3, §4, §8, §9

[4] = test system: HIV-1 clinical isolated, characterised by mutations on the protease gene inducing geno-phenotypic resistance to NFV; assay: p24 production susceptibility test (ACTG protocol), Table 10, PBMC; format: cell-based; conditions: for S.I. HCQ: I.C.50/E.C.50; for Fen. HCQ (fold): ratio to HIV-IIIB; for EC50: Human immunodeficiency virus 1, PBMC, read-out: E.C.50 HCQ
Description: as §5, §1, §2, §6, §7, §3, §4, §8, §9

[5] = test system: HIV-1 strains cultivated in PBMC and isolated from patient naive to the treatment; assay: p24 production susceptibility test (ACTG protocol), Table 11; format: cell-based; conditions: for EC50: Human immunodeficiency virus 1, PBMC; for S.I. HCQ: I.C.50/E.C.50
Procedure: as §1, §2, §6, §7, §3, §4, §8, §9

[6] = test system: HIV clinical isolated, characterised by mutations in the RT gene inducing geno-phenotypic resistance to ddI; assay: p24 production susceptibility test (ACTG protocol), Table 2; format: cell-based, HIV-1; conditions: for EC50: Human immunodeficiency virus 1, PBMC, read-out: E.C.50 HCQ; for S.I. HCQ / Fen HCQ (fold): PBMC; for S.I. HCQ: I.C.50/E.C.50; for Fen HCQ (fold): ratio to HIV-IIIB
Description: as §5, §1, §2, §6, §7, §3, §4, §8, §9

[7] = test system: HIV-1 clinical isolated, characterised by mutations in the RT gene inducing geno-phenotypic resistance to ABC; assay: p24 production susceptibility test (ACTG protocol), Table 5; format: cell-based; conditions: for EC50: Human immunodeficiency virus 1, PBMC, read-out: E.C.50 HCQ; for S.I. HCQ / Fen. HCQ (fold): PBMC; for S.I. HCQ: I.C.50/E.C.50; for Fen. HCQ (fold): ratio to HIV-IIIB
Description: as §5, §1, §2, §6, §7, §3, §4, §8, §9

[8] = Gen. K65R F77L Y115F Q151M M184V
[9] = Gen M4IL M184V L210W R211KL 214F T215Y
[10] = Gen. K65R S68G F77L Y115F Q151M M184V
[11] = Gen. M41L D67N M184V L210W T215Y

`CCN(CCO)CCCC(C)Nc1ccnc2cc(Cl)ccc12` (stereo not drawn) [HCQ, hydroxychloroquine] gave an EC50 [1] of 1500 to 3500 nM, an EC50 ([2]; Gen. K101D K103N) of 2500 nM and an EC50 ([2]; Gen. K103N V108D) of 2800 nM. It also gave an EC50 ([2]; Gen. K103N Y181C) of 2500 nM, an EC50 ([2]; Gen. K103N) of 2800 nM and an EC50 ([2]; Gen. L100I K103N) of 3200 nM. For the same compound, the EC50 ([2]; Gen. Y181C) was 1500 nM, the “S.I. HCQ” value ([2]; Gen. K101D K103N) was 8.8 and the “Fen. HCQ (fold)” value ([2]; Gen. K101D K103N) was 1.6X fold. For the same compound, the “S.I. HCQ” value ([2]; Gen. K103N V108D) was 7.8, the “Fen. HCQ (fold)” value ([2]; Gen. K103N V108D) was 1.8X fold and the “S.I. HCQ” value ([2]; Gen. K103N Y181C) was 8.5. For the same compound, the “Fen. HCQ (fold)” value ([2]; Gen. K103N Y181C) was 1.6X fold, the “S.I. HCQ” value ([2]; Gen. K103N) was 8.7 and the “Fen. HCQ (fold)” value ([2]; Gen. K103N) was 1.8X fold. For the same compound, the “S.I. HCQ” value ([2]; Gen. L100I K103N) was 6, the “Fen. HCQ (fold)” value ([2]; Gen. L100I K103N) was 2.1X fold and the “S.I. HCQ” value ([2]; Gen. Y181C) was 8.7. The “Fen. HCQ (fold)” value ([2]; Gen. Y181C) was 1X fold, the EC50 [3, 8] was 3500 nM and the EC50 ([3]; Gen. K65R F116Y Q151M) was 3000 nM. It also gave an EC50 ([3]; Gen. M41I T69SSS T215Y) of 2500 nM, an EC50 ([3]; Gen. T69SSS T215Y) of 3000 nM and an EC50 ([3]; Gen. V75I F77L F116Y Q151M) of 3000 nM. For the same compound, the “S.I. HCQ” value [3, 8] was 3.3, the “Fen. HCQ (fold)” value [3, 8] was 2.3X fold and the “S.I. HCQ” value ([3]; Gen. K65R F116Y Q151M) was 3.3. The “Fen. HCQ (fold)” value ([3]; Gen. K65R F116Y Q151M) was 2.2X fold, the “S.I. HCQ” value ([3]; Gen. M41I T69SSS T215Y) was 3.6 and the “Fen. HCQ (fold)” value ([3]; Gen. M41I T69SSS T215Y) was 1.6X fold. The “S.I. HCQ” value ([3]; Gen. T69SSS T215Y) was 3.3, the “Fen. HCQ (fold)” value ([3]; Gen. T69SSS T215Y) was 2X fold and the “S.I. HCQ” value ([3]; Gen. V75I F77L F116Y Q151M) was 4. For the same compound, the “Fen. HCQ (fold)” value ([3]; Gen. V75I F77L F116Y Q151M) was 2X fold, the “S.I. HCQ” value ([4]; Gen. D30N A71V) was 4 and the “Fen. HCQ (fold)” value ([4]; Gen. D30N A71V) was 1.2X fold. The “S.I. HCQ” value ([4]; Gen. D30N M46V A71V) was 5.5, the “Fen. HCQ (fold)” value ([4]; Gen. D30N M46V A71V) was 1X fold and the “S.I. HCQ” value ([4]; Gen. G48V V92A) was 3.3. The “Fen. HCQ (fold)” value ([4]; Gen. G48V V92A) was 1.6X fold, the “S.I. HCQ” value ([4]; Gen. V82F L90M) was 3.6 and the “Fen. HCQ (fold)” value ([4]; Gen. V82F L90M) was 1.3X fold. The EC50 ([4]; Gen. D30N A71V) was 2200 nM, the EC50 ([4]; Gen. D30N M46V A71V) was 1800 nM and the EC50 ([4]; Gen. G48V V92A) was 3000 nM. The EC50 ([4]; Gen. V82F L90M) was 2500 nM, the EC50 ([5]; HIV-1 virus sensitive to the anti-retroviral treatment, range over each experiment, read-out: E.C.50) was 1500 to 3500 nM and the EC50 ([5]; PBMC, Virus N°1, read-out: E.C.50 HCQ) was 2200 nM. It also gave an EC50 ([5]; PBMC, Virus N°2, read-out: E.C.50 HCQ) of 1800 nM, an EC50 ([5]; PBMC, Virus N°3, read-out: E.C.50 HCQ) of 1500 nM and an EC50 ([5]; PBMC, Virus N°4, read-out: E.C.50 HCQ) of 2200 nM. For the same compound, the EC50 ([5]; PBMC, Virus N°5, read-out: E.C.50 HCQ) was 1800 nM, the “S.I. HCQ” value ([5]; PBMC, Virus N°1) was 4.5 and the “S.I. HCQ” value ([5]; PBMC, Virus N°2) was 5. For the same compound, the “S.I. HCQ” value ([5]; PBMC, Virus N°3) was 6, the “S.I. HCQ” value ([5]; PBMC, Virus N°4) was 4 and the “S.I. HCQ” value ([5]; PBMC, Virus N°5) was 4.5. For the same compound, the EC50 ([6]; Gen D67N K70R M184V T215Y) was 2500 nM, the EC50 ([6]; Gen D67N K70R T215F K70R) was 2500 nM and the EC50 ([6]; Gen K70R T215F K219Q) was 2000 nM. The EC50 [6, 9] was 2500 nM, the EC50 ([6]; Gen M41I T215F) was 2500 nM and the EC50 ([6]; Gen M41L D67N K70R M184V T215Y) was 2500 nM. For the same compound, the EC50 ([6]; Gen M41L D67N K70R T215Y) was 2800 nM, the “S.I. HCQ” value ([6]; Gen D67N K70R M184V T215Y) was 4.5 and the “Fen HCQ (fold)” value ([6]; Gen D67N K70R M184V T215Y) was 1.3X fold. The “S.I. HCQ” value ([6]; Gen D67N K70R T215F K70R) was 3.4, the “Fen HCQ (fold)” value ([6]; Gen D67N K70R T215F K70R) was 1.1X fold and the “S.I. HCQ” value ([6]; Gen K70R T215F K219Q) was 5. The “Fen HCQ (fold)” value ([6]; Gen K70R T215F K219Q) was 0.8X fold, the “S.I. HCQ” value [6, 9] was 4 and the “Fen HCQ (fold)” value [6, 9] was 1.3X fold. For the same compound, the “S.I. HCQ” value ([6]; Gen M41I T215F) was 4.5, the “Fen HCQ (fold)” value ([6]; Gen M41I T215F) was 1.3X fold and the “S.I. HCQ” value ([6]; Gen M41L D67N K70R M184V T215Y) was 3.6. For the same compound, the “Fen HCQ (fold)” value ([6]; Gen M41L D67N K70R M184V T215Y) was 1.3X fold, the “S.I. HCQ” value ([6]; Gen M41L D67N K70R T215Y) was 3.4 and the “Fen HCQ (fold)” value ([6]; Gen M41L D67N K70R T215Y) was 1.1X fold. For the same compound, the EC50 ([7]; Gen. K65R L74V M184V) was 1500 nM, the EC50 [7, 10] was 2200 nM and the EC50 ([7]; Gen. L74V M184F) was 2200 nM. For the same compound, the EC50 ([7]; Gen. L74V Y115F M184V) was 2500 nM, the EC50 [7, 11] was 1800 nM and the “S.I. HCQ” value ([7]; Gen. K65R L74V M184V) was 6. The “Fen. HCQ (fold)” value ([7]; Gen. K65R L74V M184V) was 1X fold, the “S.I. HCQ” value [7, 10] was 4 and the “Fen. HCQ (fold)” value [7, 10] was 1.4X fold. For the same compound, the “S.I. HCQ” value ([7]; Gen. L74V M184F) was 4, the “Fen. HCQ (fold)” value ([7]; Gen. L74V M184F) was 1.4X fold and the “S.I. HCQ” value ([7]; Gen. L74V Y115F M184V) was 3.6. For the same compound, the “Fen. HCQ (fold)” value ([7]; Gen. L74V Y115F M184V) was 1.3X fold, the “S.I. HCQ” value [7, 11] was 5.5 and the “Fen. HCQ (fold)” value [7, 11] was 1.2X fold.
